Laboratory results: patent US8541442B2, “Indole derivatives as anticancer agents” (Janssen Pharmaceutica N.V., priority 2009, dated 2013)

Experiments:
[1] = tested on: A2780 ovarian cancer cells; experiment: Alamar Blue cell proliferation assay, A2780; format: cell-based, human; conditions: 4-day incubation
Method: The human A2780 ovarian cancer cells were a kind gift from Dr. T. C. Hamilton (Fox Chase Cancer Centre, Pennsylvania, U.S.A.). The cells were cultured in RPMI 1640 medium supplemented with 2 mM L-Glutamine, 50 μg/ml gentamicin and 10% fetal calf serum.
Potassium Phosphate Buffer 0.1 M (PPB) was made as follows: 2.72 gram KH2PO4 and 13.86 gram K2HPO4 were dissolved in 500 ml milli-Q H2O, the pH was adjusted to pH 7.4 and the volume was brought to 1 liter with milli-Q H2O; the buffer was filter sterilised and stored at room temperature. Resazurin stock solution (PPB-A) was prepared fresh by dissolving 45 mg resazurin in 15 ml PBS. 30 mM potassium ferricyanide (PPB-B) was prepared by dissolving 0.987 gram potassium ferricyanide in 100 ml PPB. 30 mM potassium ferrocyanide (PPB-C) was prepared by dissolving 1.266 gram potassium ferrocyanide in 100 ml PPB.
Mixture of PPB-A, PPB-B and PPB-C was prepared by mixing equal volumes of the respective solutions. Resazurin work solution (herein termed “Alamar Blue” solution) was prepared by diluting said mixture 20×(vol/vol) in PPB and filter sterilising; the Alamar Blue solution could be kept at 4° C. for a maximum of 2 weeks.
(§1) For experiments in 384 wells plates the cells were seeded at a density of 5×10^3 cells/ml in Falcon 384-well culture plates (Life Technologies, Merelbeke, Belgium), black with clear bottom, in 45 μl culture medium. Cells were allowed to adhere to plastic for 24 hr. The tested compound was pre-diluted (1/50 in culture medium) and 5 μl pre-diluted compound was added to the wells. Following 4-day incubation, 10 μl of the Alamar Blue solution was added to each well and the cells were further incubated for 5 hrs (A2780) at 37° C. The fluorescence intensity was measured for each well with a Fluorescence plate reader (Fluorskan, Labsystems, 540 nm excitation and 590 nm emission)
(§2) The antiproliferative activity was calculated as percentage of remaining viable cells in treated versus control (untreated cells) conditions. Within an experiment, the result for each experimental condition is the mean of 3 replicate wells. When appropriate, the experiments were repeated to establish full concentration-response curves. When appropriate, IC50-values (concentration of the drug, needed to reduce cell growth to 50% of the control) were computed using probit analysis for graded data (Finney, D. J., Probit Analyses, 2nd Ed. Chapter 10, Graded Responses, Cambridge University Press, Cambridge 1962). Herein the effects of test compounds are expressed as pIC50 (the negative log value of the IC50-value (M)) (see Table 5A).

p53 in A2780 cells = experiment: p53 ELISA (preservation of p53 in A2780 cells); format: cell-based, human; conditions: 16 hours treatment
Method: The capacity of the present compounds to preserve p53 in A2780 cells was measured with the p53 enzyme linked immunosorbent assay. The p53 assay is a “sandwich” enzyme immunoassay employing two polyclonal antibodies. A polyclonal antibody, specific for the p53 protein, has been immobilized onto the surface of the plastic wells. Any p53 present in the sample to be assayed will bind to the capture antibody. The biotinylated detector polyclonal antibody also recognizes p53 protein, and will bind to any p53, which has been retained by the capture antibody. The detector antibody, in turn, is bond by horseradish peroxidase-conjugated streptavidin. The horseradish peroxidase catalyses the conversion of the chromogenic substrate o-phenylene diamine, the intensity of which is proportional to the amount of p53 protein bond to the plate. The colored reaction product is quantified using a spectrophotometer. Quantitation is achieved by the construction of a standard curve using known concentrations of purified recombinant HIS tagged p53 protein (see example C.1.).
A2780 cells (ATCC) were cultivated in RPMI 1640 supplemented with 10% fetal calf serum (FCS), 2 mM L-glutamine and gentamycin at 37° C. in a humidified incubator with 5% CO2.
A2780 cells were seeded at 20.000 cells per well in a 96 well plate, cultured for 24 hours and treated with compound for 16 hours at 37° C. in a humidified incubator. After incubation, the cells were washed once with phosphate-buffered saline and 30 μl, per well, low salt RIPA buffer (20 mM tris, pH7.0, 0.5 mM EDTA, 1% Nonidet P40, 0.5% DOC, 0.05% SDS, 1 mM PMSF, 1 μg/ml aprotinin and 0.5 μ/ml leupeptin) was added. Plates were placed on ice for 30 minutes to complete the lysis. p53 protein was detected in de lysates by using the sandwich ELISA, described below.
High binding polystyrene EIA/RIA 96 well plates (Costar 9018) were coated with the capture antibody pAb1801 (Abcam ab28-100) at a concentration of 1 μg/ml in coating buffer (0.1 M NaHCO3 pH8.2), 50 μl per well. The antibody was allowed to adhere overnight at 4° C. Coated plates were washed once with phosphate-buffered saline (PBS)/0.05% Tween 20 and 300 μl of blocking buffer (PBS, 1% bovine serum albumins (BSA)) was added, for an incubation period of 2 hours at room temperature. Dilutions of purified recombinant HIS tagged p53 protein, ranging from 3-200 ng/ml, were made in blocking buffer and used as standards.
Plates were washed twice with PBS/0.05% Tween 20 and blocking buffer or standards were added at 80 μl/well. To the standards, 20 μl of lysis buffer was added. The samples were added to the other wells at 20 μl lysate/well. After an overnight incubation at 4° C., plates were washed twice with PBS/0.05% Tween 20. Aliquots of 100 μl secondary polyclonal antibody p53(FL-393) (Tebubio, sc-6243) at a concentration of 1 μg/ml in blocking buffer were added to each well and allowed to adhere for 2 hours at room temperature. Plates were washed three times with PBS/0.05% Tween 20. Detection antibody anti-rabbit HRP (sc-2004, Tebubio) at 0.04 μg/ml in PBS/1% BSA was added and incubated for 1 hour at room temperature. Plates were washed three times with PBS/0.05% Tween 20 and 100 μl of substrate buffer was added (substrate buffer was prepared shortly before use by adding 1 tablet of 10 mg o-phenylene diamine (OPD) from Sigma and 125 μl 3% H2O2 to 25 ml OPD buffer: 35 mM citric acid, 66 mM Na2HPO4, pH5.6). After 5 to 10 minutes, colour reaction was stopped by adding 50 μl stop buffer (1 M H2SO4) per well. The absorbance at dual wavelengths of 490/655 nm was measured using a Biorad micro plate reader and the results were then analyzed.
For each experiment, controls (containing no drug) and a blank incubation (containing no cells or drugs) were run in parallel. The blank value was subtracted from all control and sample values. For each sample, the value of p53 (in absorbance units) was expressed as the percentage of the value for p53 present in the control. […]

[2] = tested on: non-small cell lung cancer cell line H1299; experiment: Alamar Blue cell proliferation assay, H1299; format: cell-based; conditions: for H1299 cell proliferation inhibition pIC50: H1299 cells
Method: as §1, §2
Compounds were also tested according to the above protocol but using other cell lines: colorectal cancer cell line HCT116, non-small cell lung cancer cell line H1299, human prostate cancer cell line DU145.

| Compound | A2780 cell proliferation inhibition pIC50 [1] | p53-elisa LAD (lowest dose giving at least 140% of the value for p53 present in the control) (p53 in A2780 cells) [µM] | H1299 cell proliferation inhibition pIC50 [2] | IC50 ([1]; Homo sapiens, A2780, 96 h, read-out: A2780 cell proliferation inhibition pIC50 (converted)) [nM] | minimal effective concentration (p53 in A2780 cells; Homo sapiens, A2780, 16 h, read-out: p53-elisa LAD (lowest dose giving at least 140% of the value for p53 present in the control)) [µM] | IC50 ([2]; Homo sapiens, NCI-H1299, H1299 cells, read-out: H1299 cell proliferation inhibition pIC50 (converted)) [nM] |
| --- | --- | --- | --- | --- | --- | --- |
| Cc1cc(Nc2ccnc3c2CCC3O)ccc1NCCc1c[nH]c2c(C(C)O)cccc12 (single isomer, unassigned) [Compound 15] | 7.27 | 0.10 | 5.82 |  |  |  |
| Cc1cc(Nc2ccnc(CO)c2)ccc1NCCc1c[nH]c2c(C(C)O)cccc12 (stereo not drawn) [Compound 5] |  |  |  | 52.5 | 0.1 | 5890 |
| CC(C)(O)c1cccc2c(CCNc3ccc(Nc4ccnc5c4CCC5(C)O)cc3)c[nH]c12 (single isomer, unassigned) [Compound 31] | 6.84 | 0.10 | 5.84 |  |  |  |
| Cc1cc(Nc2ccncc2)ccc1NCCc1c[nH]c2c(C(O)C(C)C)cccc12 (stereo not drawn) [Compound 22] | 6.26 | 3.00 | 5.09 |  |  |  |
| Cc1cc(Nc2ccnc3c2CCC3O)ccc1NCCc1c[nH]c2c(C(C)O)cccc12 (single isomer, unassigned) [Compound 12] | 7.20 | 0.10 | 5.2 |  |  |  |
| COC1CCc2c(Nc3ccc(NCCc4c[nH]c5c(C(C)(C)O)cccc45)c(C)c3)ccnc21 (single isomer, unassigned) [Compound 28] | 6.89 | 0.10 | 6.73 |  |  |  |
